Two compounds from patent US6602511B2, “Microemulsions for use as vehicles for administration of active compounds” (AstraZeneca AB, priority 1995, dated 2003) can be followed below.

The nature of data set [1]: Solubility of sparingly soluble substances in water, microemulsion and PEG 400 (50%).
Method: (§1) Different amounts of the substances were added to 1 ml samples of the microemulsion placed in glass vials. The samples were rotated for 48 hours to allow a complete wetting of the solid substance. The samples were than kept in a waterbath at 25° C. for at least one week before inspection. The samples were inspected for any solid substance or phase separation and the maximum solubility was defined as the range between the last sample in each series without any trace of solids or phase separation, and the first sample with remaining and undissolved substance or a phase separation.
Data set [2] in a line: physchem. Particulars: aqueous with cosolvent or surfactant or cyclodextrin.
Method: as §1

In brackets after ≈: the same amount, converted by molar mass.

In general, solubility refers to how much of the substance goes into solution per volume. Low readings indicate little dissolved substance, high ones much dissolved substance. The compound `CCOc1c(C)cc2c(c1C)[C@@]1(C)Cc3ccccc3[C@@]1(C)N2` (relative stereo) [The indeno indole, cis-4b,5,9b,10-tetrahydro-4b,7,9,9b-tetramethyl-8-ethoxy-indeno(1,2-b)indole] registered a solubility in data set [1] (PEG 400 (50%) solution, aqueous with cosolvent or surfactant or cyclodextrin) of 200 µg/mL (≈ 651 µM). Moreover, the Sol. in water in data set [1] (in water) came out at 2.0 mg/L. The “sol. in microemulsion 1a” value in data set [1] (microemulsion 1a, 25° C., at least one week, range between last clear and first undissolved sample) lay within 40000 to 50000 mg/L. Also, the “sol. in microemulsion 1b” value in data set [1] (microemulsion 1b, 25° C., at least one week, range between last clear and first undissolved sample) was 60000 to 75000 mg/L. Besides, in data set [1] (microemulsion vs 50% solution PEG 400), the “amount possible to administrate using the microemulsion compared to a 50% solution PEG 400” value was “over 100 times”.
Consider `CCOC(=O)C1=C(C)NC(C)=C(C(=O)OC)C1c1cccc(Cl)c1Cl` (stereo not drawn) [Felodipine, ethyl methyl 4-(2,3-dichlorophenyl)-1,4-dihydro-2,6-dimethyl-3,5-pyridinedicarboxylate], for which the solubility in data set [2] worked out at 700 µg/mL (≈ 1820 µM).
